Reference: ChEMBL document CHEMBL1909046, “DrugMatrix in vitro pharmacology data”
pIC50, pKi: −log10 of the molar value.

Columns and labels:
Progesterone receptor = target: T1, Progesterone receptor (Bos taurus, UniProt Q690N0); assay: DRUGMATRIX: Progesterone radioligand binding (ligand: [3H] R-5020); type: tissue-based, Uterus; details: Not Active = under 50% inhibition at 10 µM
T1 sequence (Q690N0 whole entry): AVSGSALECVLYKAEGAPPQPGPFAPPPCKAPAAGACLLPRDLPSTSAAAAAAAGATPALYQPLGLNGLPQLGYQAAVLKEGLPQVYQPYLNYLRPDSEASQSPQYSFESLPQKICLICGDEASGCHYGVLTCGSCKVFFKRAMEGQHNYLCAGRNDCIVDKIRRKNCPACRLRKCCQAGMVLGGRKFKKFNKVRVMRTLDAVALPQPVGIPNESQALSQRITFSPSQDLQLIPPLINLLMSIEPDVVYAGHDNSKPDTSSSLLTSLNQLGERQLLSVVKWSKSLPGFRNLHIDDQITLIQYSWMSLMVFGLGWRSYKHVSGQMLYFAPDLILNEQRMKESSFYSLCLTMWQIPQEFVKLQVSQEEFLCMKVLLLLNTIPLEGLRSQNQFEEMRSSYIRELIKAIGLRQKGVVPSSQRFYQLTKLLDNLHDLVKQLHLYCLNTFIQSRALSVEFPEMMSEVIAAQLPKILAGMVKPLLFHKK

[1] = target: T2, Alpha-2A adrenergic receptor (Homo sapiens, UniProt P08913); type: cell membranes, Sf9, Membrane; details: for IC50 / Ki: sf9; for all read-outs here: in other assays of this panel Not Active means under 50% inhibition at 10 µM
T2 sequence (P08913 whole entry): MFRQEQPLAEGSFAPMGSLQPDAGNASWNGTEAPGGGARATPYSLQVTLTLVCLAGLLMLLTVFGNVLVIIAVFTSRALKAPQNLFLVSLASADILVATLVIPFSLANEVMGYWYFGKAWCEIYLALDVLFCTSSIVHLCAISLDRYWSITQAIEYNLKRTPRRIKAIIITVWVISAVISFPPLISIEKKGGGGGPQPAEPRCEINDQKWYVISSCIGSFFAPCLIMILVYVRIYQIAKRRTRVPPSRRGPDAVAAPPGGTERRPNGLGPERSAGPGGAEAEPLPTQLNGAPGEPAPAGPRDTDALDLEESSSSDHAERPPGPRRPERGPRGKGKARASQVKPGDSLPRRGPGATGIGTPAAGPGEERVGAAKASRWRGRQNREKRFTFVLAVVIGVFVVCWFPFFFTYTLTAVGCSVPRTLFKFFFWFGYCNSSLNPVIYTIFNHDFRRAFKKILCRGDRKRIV

Cytochrome P450 3A4 = Cytochrome P450 3A4 (Homo sapiens, UniProt P08684); details: bti-tn-5b1-4; note: in other assays of this panel Not Active means under 50% inhibition at 10 µM
D(3) dopamine receptor = D(3) dopamine receptor (Homo sapiens, UniProt P35462); assay: DRUGMATRIX: Dopamine D3 radioligand binding (ligand: [3H] Spiperone); type: cell membranes, CHO, Membrane; details: for IC50 / Ki: cho
[2] = target: Sodium-dependent noradrenaline transporter (Homo sapiens, UniProt P23975); assay: DRUGMATRIX: Norepinephrine Transporter radioligand binding (ligand: [125I] RTI-55); type: cell membranes, MDCK, Membrane; details: mdck; Not Active = under 50% inhibition at 10 µM
[3] = DRUGMATRIX: Phorbol Ester radioligand binding (ligand: [3H] PDBu); type: cell membranes, Mus musculus, ICR, Brain, Membrane; details: Not Active = under 50% inhibition at 10 µM

Sequence of D(3) dopamine receptor (P35462 whole entry): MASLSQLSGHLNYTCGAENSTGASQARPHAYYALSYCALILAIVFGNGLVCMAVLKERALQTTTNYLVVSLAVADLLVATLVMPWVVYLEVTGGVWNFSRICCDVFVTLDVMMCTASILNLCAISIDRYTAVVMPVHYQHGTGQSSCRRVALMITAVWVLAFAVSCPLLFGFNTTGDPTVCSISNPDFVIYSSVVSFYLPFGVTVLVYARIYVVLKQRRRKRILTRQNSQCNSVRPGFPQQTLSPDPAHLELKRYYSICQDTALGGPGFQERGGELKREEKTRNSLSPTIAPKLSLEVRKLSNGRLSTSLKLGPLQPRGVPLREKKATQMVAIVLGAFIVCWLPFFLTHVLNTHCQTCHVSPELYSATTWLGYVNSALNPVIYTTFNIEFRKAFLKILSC
Sequence of Sodium-dependent noradrenaline transporter (P23975 whole entry): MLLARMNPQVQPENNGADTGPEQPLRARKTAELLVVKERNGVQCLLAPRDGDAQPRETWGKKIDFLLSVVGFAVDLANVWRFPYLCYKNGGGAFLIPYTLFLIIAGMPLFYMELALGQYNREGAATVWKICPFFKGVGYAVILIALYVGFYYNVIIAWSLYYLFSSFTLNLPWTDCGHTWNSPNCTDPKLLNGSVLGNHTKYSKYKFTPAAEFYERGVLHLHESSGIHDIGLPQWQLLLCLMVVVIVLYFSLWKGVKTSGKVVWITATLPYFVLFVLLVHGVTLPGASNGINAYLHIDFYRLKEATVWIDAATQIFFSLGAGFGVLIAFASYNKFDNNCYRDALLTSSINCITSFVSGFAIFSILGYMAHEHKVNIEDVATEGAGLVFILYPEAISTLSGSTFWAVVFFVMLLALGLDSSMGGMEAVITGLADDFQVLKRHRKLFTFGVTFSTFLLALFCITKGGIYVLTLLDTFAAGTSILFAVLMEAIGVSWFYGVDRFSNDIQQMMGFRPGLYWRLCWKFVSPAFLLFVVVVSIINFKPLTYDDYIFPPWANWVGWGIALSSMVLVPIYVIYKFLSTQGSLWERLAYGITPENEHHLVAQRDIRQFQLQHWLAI
Sequence of Cytochrome P450 3A4 (P08684 whole entry): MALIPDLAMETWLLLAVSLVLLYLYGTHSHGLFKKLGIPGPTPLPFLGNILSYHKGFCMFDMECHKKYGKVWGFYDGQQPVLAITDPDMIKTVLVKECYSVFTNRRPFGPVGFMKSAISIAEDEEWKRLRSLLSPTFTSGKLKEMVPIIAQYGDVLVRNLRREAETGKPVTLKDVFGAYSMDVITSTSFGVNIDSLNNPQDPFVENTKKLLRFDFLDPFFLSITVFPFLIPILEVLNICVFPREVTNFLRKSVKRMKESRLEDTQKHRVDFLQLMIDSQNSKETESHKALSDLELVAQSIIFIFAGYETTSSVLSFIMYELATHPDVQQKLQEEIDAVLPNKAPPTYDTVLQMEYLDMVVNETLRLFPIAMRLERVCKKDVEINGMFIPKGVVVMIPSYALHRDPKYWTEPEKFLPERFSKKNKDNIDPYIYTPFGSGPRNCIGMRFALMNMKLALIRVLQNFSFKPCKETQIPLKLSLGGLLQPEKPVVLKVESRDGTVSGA

Compound	IC50 (Progesterone receptor)	IC50 [1]	IC50 (Cytochrome P450 3A4)	Ki (Cytochrome P450 3A4)	IC50 (D(3) dopamine receptor)	IC50 [2]	IC50 [3]	Ki [3]	pIC50 ([1]; read-out: IC50)	pKi ([1]; read-out: Ki)	pIC50 (D(3) dopamine receptor; read-out: IC50)	pKi (D(3) dopamine receptor; read-out: Ki)	Ki (Progesterone receptor)	Ki [1]	Ki (D(3) dopamine receptor)	Ki [2]
CC(C)NCC(O)c1ccc(NS(C)(=O)=O)cc1 (stereo unspecified) [SOTALOL]	Not Active	Not Active	Not Active	Not Active	Not Active	Not Active	Not Active	Not Active	–	–	–	–	–	–	–	–
O.O.O.O.O.O.[Cl-].[Cl-].[Sr+2] [STRONTIUM CHLORIDE HEXAHYDRATE]	Not Active	Not Active	Not Active	Not Active	Not Active	Not Active	Not Active	Not Active	–	–	–	–	–	–	–	–
O=C1C(CC[S+]([O-])c2ccccc2)C(=O)N(c2ccccc2)N1c1ccccc1 (stereo unspecified) [SULFINPYRAZONE]	Not Active	Not Active	Not Active	Not Active	Not Active	Not Active	Not Active	Not Active	–	–	–	–	–	–	–	–
NC(=O)N1C(=O)/C(=C(\O)c2cccs2)c2cc(Cl)ccc21 [TENIDAP]	Not Active	Not Active	Not Active	Not Active	Not Active	Not Active	Not Active	Not Active	–	–	–	–	–	–	–	–
Cn1c(=O)c2nc[nH]c2n(C)c1=O.O [THEOPHYLLINE]	Not Active	Not Active	Not Active	Not Active	Not Active	Not Active	Not Active	Not Active	–	–	–	–	–	–	–	–
CS(=O)(=O)c1ccc([C@@H](O)[C@@H](CO)NC(=O)C(Cl)Cl)cc1 [THIAMPHENICOL]	Not Active	Not Active	Not Active	Not Active	Not Active	Not Active	Not Active	Not Active	–	–	–	–	–	–	–	–
CCN(CC)CCNC(=O)c1cc(S(C)(=O)=O)ccc1OC [TIAPRIDE]	Not Active	–	Not Active	Not Active	–	Not Active	Not Active	Not Active	5.68	6.11	5.94	6.41	–	–	–	–
NC1CCN(c2nc3c(cc2F)c(=O)c(C(=O)O)cn3-c2ccc(F)cc2F)C1 (stereo unspecified) [TOSUFLOXACIN]	Not Active	Not Active	Not Active	Not Active	Not Active	Not Active	Not Active	Not Active	–	–	–	–	–	–	–	–
O=C(Nc1ccc(Br)cc1)c1cc(Br)cc(Br)c1O [TRIBROMSALAN]	Not Active	Not Active	Not Active	Not Active	Not Active	Not Active	Not Active	Not Active	–	–	–	–	–	–	–	–
CC(c1cc2ccccc2s1)N(O)C(N)=O (stereo unspecified) [ZILEUTON]	Not Active	Not Active	Not Active	Not Active	Not Active	Not Active	Not Active	Not Active	–	–	–	–	–	–	–	–
MANGANESE CHLORIDE ANHYDROUS	Not Active	Not Active	Not Active	Not Active	Not Active	Not Active	Not Active	Not Active	–	–	–	–	Not Active	Not Active	Not Active	Not Active
SODIUM ORTHOVANAD	Not Active	Not Active	Not Active	Not Active	Not Active	Not Active	Not Active	Not Active	–	–	–	–	Not Active	Not Active	Not Active	Not Active
